Source: patent US6262064A, “Octahydrobenzo[f]quinoline-based receptor agonists and antagonists” (priority 1999, dated 2001)
Read-outs that look alike come from different tables or passages of the source.

What was measured:
[1] = biological target: alpha1-adrenergic receptor; settings: for α1 receptor binding affinity: in words
Method: In these assays, the binding reaction was initiated by the addition of varying concentrations of the potential binding composition and a radioligand to an appropriate tissue. The assay was then incubated to allow binding. Binding was then terminated by dilution of the assay with a cold buffer, followed by rapid vacuum filtration onto Whatman GI/C filters that were presoaked in 0.1% polyethylene imine for at least 3 hours. Radioactivity trapped onto the filters was determined and compared to control values in order to ascertain any interactions of test compounds with the binding sites. Binding affinity analyses were performed by Novascreen, Division of the Adheron Corporation, Hanover, Md.
Incubation was conducted in 50 mM TRIS-HCl (pH 7.7) at 25° C. for 60 minutes. […] The final ligand concentration was 0.5 nm.

D1 dopamine receptor = biological target: T1, D1 dopamine receptor (Rattus norvegicus, UniProt P18901); test: Dopamine D1 binding assay ([3H]SCH 23390); settings: Table III; rat striatal membranes; read-out: D1 receptor binding affinity Ki
T1 construct: rat striatal membranes; from tissue; host or cells: rat striatum membranes
Method: The final radioligand concentration was 0.5 nM.

D2 dopamine receptor = biological target: T2, D2 dopamine receptor (Rattus norvegicus, UniProt P61169); test: Dopamine D2 binding assay ([3H]Sulpiride); settings: for dopamine receptor binding affinity / selectivity for the D2 over the D1 dopamine receptor: in words
T2 construct: rat striatal membranes; from tissue; host or cells: rat striatum membranes
Method: The final ligand concentration was 0.5 nM.

[2] = biological target: alpha2-adrenergic receptor; test: Alpha2-adrenergic (non-selective) binding assay ([3H]RX 781094); design: species or system rat; settings: for α2 receptor binding affinity: in words
5HT1A serotonin receptor = biological target: T3, 5HT1A serotonin receptor (Bos taurus, UniProt F6Q2H9); test: Serotonin (5HT1A) binding assay ([3H]-8-OH-DPAT); design: species or system bovine; settings: for 5HT1A serotonin receptor binding affinity: in words
T3 construct: bovine hippocampus; from tissue; host or cells: bovine hippocampus
T3 sequence (F6Q2H9 1-422): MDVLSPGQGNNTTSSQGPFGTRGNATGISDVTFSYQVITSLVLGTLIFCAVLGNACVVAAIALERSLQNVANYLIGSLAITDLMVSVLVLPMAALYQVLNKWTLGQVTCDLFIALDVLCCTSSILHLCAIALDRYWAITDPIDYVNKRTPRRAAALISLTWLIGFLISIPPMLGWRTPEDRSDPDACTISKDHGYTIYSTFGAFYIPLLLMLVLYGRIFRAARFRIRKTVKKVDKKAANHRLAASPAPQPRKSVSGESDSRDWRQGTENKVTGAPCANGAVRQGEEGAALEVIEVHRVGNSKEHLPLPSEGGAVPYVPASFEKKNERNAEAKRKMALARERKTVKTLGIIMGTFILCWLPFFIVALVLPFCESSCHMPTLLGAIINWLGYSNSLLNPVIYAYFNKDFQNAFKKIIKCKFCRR

5HT2 serotonin receptor = biological target: T4, 5HT2 serotonin receptor (Rattus norvegicus, UniProt P14842); test: Serotonin (5HT2) binding assay ([3H]Ketanserin)
T4 construct: rat cortical membranes; from tissue; host or cells: rat cortex membranes
Method: The final ligand concentration was 1.0 nM.

5HT1 serotonin receptor = test: Serotonin (5HT1) binding assay
Method: In these assays, the binding reaction was initiated by the addition of varying concentrations of the potential binding composition and a radioligand to an appropriate tissue. The assay was then incubated to allow binding. Binding was then terminated by dilution of the assay with a cold buffer, followed by rapid vacuum filtration onto Whatman GI/C filters that were presoaked in 0.1% polyethylene imine for at least 3 hours. Radioactivity trapped onto the filters was determined and compared to control values in order to ascertain any interactions of test compounds with the binding sites.
Incubation was conducted in 50 mM TRIS-HCl (pH 7.4) at 45 minutes for 37° C. The radioligand used was [^3 H]Hydroxytryptamine binoxalate (15-30 Ci/mmol). The final ligand concentration was 3.0 nM.

5HT3 serotonin receptor = test: Serotonin (5HT3) binding assay ([3H]GR65630, NIE-115 neuroblastoma cells)
Method: The binding affinities of the compositions of this invention were assayed for various receptors. In these assays, the binding reaction was initiated by the addition of varying concentrations of the potential binding composition and a radioligand to an appropriate tissue. The assay was then incubated to allow binding. Binding was then terminated by dilution of the assay with a cold buffer, followed by rapid vacuum filtration onto Whatman GI/C filters that were presoaked in 0.1% polyethylene imine for at least 3 hours. Radioactivity trapped onto the filters was determined and compared to control values in order to ascertain any interactions of test compounds with the binding sites.
Incubation was conducted in 20 mM HEPES (pH 7.4) containing 150 mM NaCl at 25° C. for 30 minutes. The radioligand used was [^3 H]GR65630 (30-50 Ci/mmol). The final ligand concentration was 0.7 nM.

beta-adrenergic receptor = test: Beta-adrenergic (non-selective) binding assay ([3H]DHA); design: species or system rat
D2 receptor = biological target: T5, D2 receptor (Rattus norvegicus, UniProt P61169); test: D2 receptor agonist evaluation (membrane binding with and without Gpp(NH)p); settings: for D2 agonist/antagonist assessment / effect of GTP on D2 receptor binding: in words
T5 construct: expressed in transfected cells
Method: To determine the D2, D3 or D4 receptor selectivity, competition binding assays were performed using membranes from fibroblast cell lines transfected with D2444 (rat), D3 (human) or D4 (rat) receptors. All cell lines were maintained in Dulbecco's modified Eagle's media (DMEM) supplemented with 10 % fetal bovine serum at 37° C. with 5% CO2. Transfected cells were maintained in DMEM containing 300 μg/mL of the antibiotic G418 (Gibco).
To determine whether or not compounds of this invention were D2 receptor agonists, a membrane binding assay, utilizing the D2 cell line described in Example 26, was performed in the presence and absence of the non-hydrolyzable guanine nucleotide (GTP analogue) Gpp(NH)p.

[3] = Table III, rat cortical membranes, read-out: α2 receptor binding affinity Ki
[4] = 5-HT1A receptor binding affinity Ki, Table III, bovine hippocampus
[5] = read-out: α1 receptor binding affinity Ki, Table III, rat forebrain membranes
[6] = read-out: 5-HT1 receptor binding affinity Ki, Table III, rat cortical membranes
[7] = Table VIII, read-out: Ki of reference compounds, 5HT1A
[8] = Table III, bovine hippocampus, read-out: 5-HT1A receptor binding affinity Ki
[9] = read-out: Ki of reference compounds, 5HT3, Table X
[10] = Table VI, read-out: Ki of reference compounds, beta-adrenergic
[11] = Table XV, with Gpp(NH)p, read-out: D2 receptor binding Ki with Gpp(NH)p
[12] = Table III, rat striatal membranes, read-out: D2 receptor binding affinity Ki
[13] = read-out: Ki of reference compounds, 5HT1, Table VII
[14] = 5-HT2 receptor binding affinity Ki
[15] = Table V, read-out: Ki of reference compounds, alpha2-adrenergic

T4 sequence (P14842 whole entry): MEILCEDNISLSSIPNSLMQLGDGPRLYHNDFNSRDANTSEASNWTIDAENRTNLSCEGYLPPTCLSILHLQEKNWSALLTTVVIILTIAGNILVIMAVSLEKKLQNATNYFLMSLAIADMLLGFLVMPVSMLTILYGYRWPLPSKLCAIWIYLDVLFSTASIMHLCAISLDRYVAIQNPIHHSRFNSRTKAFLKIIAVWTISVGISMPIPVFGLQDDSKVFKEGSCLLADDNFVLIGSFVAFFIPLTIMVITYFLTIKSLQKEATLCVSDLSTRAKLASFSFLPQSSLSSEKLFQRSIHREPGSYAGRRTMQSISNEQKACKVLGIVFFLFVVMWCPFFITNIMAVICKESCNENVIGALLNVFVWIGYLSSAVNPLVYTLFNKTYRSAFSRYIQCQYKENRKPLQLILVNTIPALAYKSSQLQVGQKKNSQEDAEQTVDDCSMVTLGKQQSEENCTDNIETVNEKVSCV
T5 sequence (P61169 whole entry): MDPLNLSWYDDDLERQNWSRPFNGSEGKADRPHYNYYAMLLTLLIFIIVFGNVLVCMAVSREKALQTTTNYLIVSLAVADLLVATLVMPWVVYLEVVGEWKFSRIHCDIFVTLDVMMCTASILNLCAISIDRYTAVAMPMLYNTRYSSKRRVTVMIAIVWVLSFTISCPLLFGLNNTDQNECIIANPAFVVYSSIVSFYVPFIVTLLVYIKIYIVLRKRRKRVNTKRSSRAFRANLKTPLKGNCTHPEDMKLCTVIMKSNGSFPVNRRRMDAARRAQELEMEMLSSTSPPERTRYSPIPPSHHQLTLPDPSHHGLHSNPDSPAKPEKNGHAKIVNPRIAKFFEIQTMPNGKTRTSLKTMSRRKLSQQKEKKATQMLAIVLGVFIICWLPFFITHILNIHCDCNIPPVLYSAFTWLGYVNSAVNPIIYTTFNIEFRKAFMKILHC
T2 sequence (P61169 whole entry): as above
T1 sequence (P18901 whole entry): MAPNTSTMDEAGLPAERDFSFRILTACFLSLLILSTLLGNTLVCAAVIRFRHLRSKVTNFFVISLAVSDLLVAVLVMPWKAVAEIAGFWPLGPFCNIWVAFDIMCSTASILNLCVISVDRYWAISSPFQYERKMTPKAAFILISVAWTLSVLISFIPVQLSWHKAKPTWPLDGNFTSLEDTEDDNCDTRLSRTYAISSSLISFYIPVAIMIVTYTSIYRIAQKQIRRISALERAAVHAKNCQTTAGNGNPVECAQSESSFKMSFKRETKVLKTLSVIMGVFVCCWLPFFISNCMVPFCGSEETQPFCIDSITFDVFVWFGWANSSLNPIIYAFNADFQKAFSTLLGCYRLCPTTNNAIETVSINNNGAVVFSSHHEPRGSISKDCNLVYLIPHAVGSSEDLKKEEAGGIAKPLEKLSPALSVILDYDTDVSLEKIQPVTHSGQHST

Compound `COc1cccc(OC)c1OCCNCC1COc2ccccc2O1` (stereo not drawn) [WB4101, reference compound] has a Ki ([1]; read-out: Ki of reference compounds, alpha1-adrenergic, Table IV) of 2.6 nM.

With `Oc1ccc2c(c1O)CC[C@H]1[C@H]2CCCN1CCc1ccccc1` (single isomer, unassigned) [trans-(-)-9, Trans-(-)-7,8-Dihydroxy-4-phenethyl-1,2,3,4,4a,5,6, 10b-octahydrobenzo[f]quinoline] the Ki (D1 dopamine receptor) was 3500 nM, the Ki (D2 dopamine receptor) was 0.38 nM and the “dopamine receptor binding affinity” value (D2 dopamine receptor) was “good dopamine receptor binding affinities”. The “selectivity for the D2 over the D1 dopamine receptor” value (shortened to “selectivity for the D2”) (D2 dopamine receptor) was “highly selective for the D2 dopamine receptor over the D1 dopamine receptor”, the Ki [2, 3] was 9 nM and the “α2 receptor binding affinity” value [2] was “high binding affinities for the α2 receptor”. For the same compound, the Ki (5HT1A serotonin receptor; [4]) was 67 nM, the “5HT1A serotonin receptor binding affinity” value (5HT1A serotonin receptor) was “high binding affinities for the 5HT1A serotonin receptor” and the Ki (5HT2 serotonin receptor) was 26 nM. For the same compound, the “5HT2 serotonin receptor binding affinity” value (5HT2 serotonin receptor; in words) was “high binding affinities for the 5HT2 serotonin receptor”, the Ki [1, 5] was 130 nM and the Ki (5HT1 serotonin receptor; [6]) was 3300 nM.

`CCCN(CCC)C1CCc2cccc(O)c2C1` (stereo not drawn) [8-OH-DPAT, reference compound] showed a Ki (5HT1A serotonin receptor; Ki characterizing the 5HT1A assay, assay characterization) of 2 nM and a Ki (5HT1A serotonin receptor; [7]) of 1.4 nM.

With `Oc1cccc2c1CC[C@@H]1[C@@H]2CCCN1CCc1cccs1` (relative stereo) [trans-31] the Ki (D2 dopamine receptor) was 1.9 nM, the “dopamine receptor binding affinity” value (D2 dopamine receptor) was “good dopamine receptor binding affinities” and the “selectivity for the D2” value (D2 dopamine receptor) was “highly selective for the D2 dopamine receptor over the D1 dopamine receptor”. For the same compound, the Ki [2, 3] was 7.2 nM, the “α2 receptor binding affinity” value [2] was “high binding affinities for the α2 receptor” and the Ki (5HT1A serotonin receptor; [8]) was 36 nM. The “5HT1A serotonin receptor binding affinity” value (5HT1A serotonin receptor) was “high binding affinities for the 5HT1A serotonin receptor”, the Ki (5HT2 serotonin receptor) was 80 nM and the “5HT2 serotonin receptor binding affinity” value (5HT2 serotonin receptor; in words) was “high binding affinities for the 5HT2 serotonin receptor”. The “α1 receptor binding affinity” value [1] was “high binding affinities for the α1 receptor” and the Ki [1, 5] was 17 nM.

With `CCN(CC)CCNC(=O)c1cc(Cl)c(N)cc1OC` [Metoclopramide] the Ki (5HT3 serotonin receptor; [9]) was 191 nM.

`CC(C)NCC(O)COc1cccc2[nH]ccc12` (stereo not drawn) [Pindolol] showed a Ki (beta-adrenergic receptor; [10]) of 1.1 nM.

In the case of `Oc1ccc2c(c1O)CC[C@@H]1[C@@H]2CCCN1CCc1cccs1` (relative stereo) [(-)-trans-33], the “5HT2 serotonin receptor binding affinity” value (5HT2 serotonin receptor) is reported as “high binding affinities for the 5HT2 serotonin receptor”.

`O=C(c1ccc(F)cc1)C1CCN(CCn2c(=O)[nH]c3ccccc3c2=O)CC1` [Ketanserin, reference compound] was tested, and the Ki (5HT1A serotonin receptor; [7]) was greater than 10000 nM.

For `Oc1cccc2c1CC[C@H]1[C@@H]2CCCN1CCc1ccccc1` (relative stereo) [cis-25, Cis-7-hydroxy-4-phenethyl-1,2,3,4,4a,5,6,10b-octahydrobenzo[f]quinoline], the Ki (D2 dopamine receptor) was 6.6 nM, the “dopamine receptor binding affinity” value (D2 dopamine receptor) was “good dopamine receptor binding affinities” and the “selectivity for the D2” value (D2 dopamine receptor) was “highly selective for the D2 dopamine receptor over the D1 dopamine receptor”. The Ki [2, 3] was 0.27 nM, the “α2 receptor binding affinity” value [2] was “high binding affinities for the α2 receptor” and the “Ratio of +:- Gpp(NH)p” value (D2 receptor; Table XV) was 1.07. For the same compound, the Ki (D2 receptor; [11]) was 176 ± 213 nM, the Ki (D2 receptor; Table XV, without Gpp(NH)p, read-out: D2 receptor binding Ki without Gpp(NH)p) was 164 ± 51 nM and the D2 agonist/antagonist assessment (D2 receptor) was “appear to be an antagonist”. The “effect of GTP on D2 receptor binding” value (D2 receptor) was “the addition of GTP did not significantly affect receptor binding affinity”, the “α1 receptor binding affinity” value [1] was “high binding affinities for the α1 receptor” and the Ki [1, 5] was 16 nM.

Work on `CC(C)(C)NCC(O)c1ccc(O)c(CO)c1` (stereo not drawn) [Albuterol] yielded a Ki (beta-adrenergic receptor; [10]) of 2880 nM.

For `Oc1ccc2c(c1O)CC[C@@H]1[C@H]2CCCN1CCc1ccccc1` (single isomer, unassigned) [cis-(-)-9], the Ki (D2 dopamine receptor) was 54 nM, the “dopamine receptor binding affinity” value (D2 dopamine receptor) was “good dopamine receptor binding affinities” and the “selectivity for the D2” value (D2 dopamine receptor) was “highly selective for the D2 dopamine receptor over the D1 dopamine receptor”. For the same compound, the Ki [2, 3] was 74 nM, the “α2 receptor binding affinity” value [2] was “high binding affinities for the α2 receptor” and the Ki [1, 5] was 180 nM.

In the case of `Oc1ccc2c(c1O)CC[C@H]1[C@H]2CCCN1CCc1ccccc1` (single isomer, unassigned) [trans-(+)-9, Trans-(+)7,8-dihydroxy-4-phenethyl-1,2,3,4,4a,5,6, 10b-octahydrobenzo[f]quinoline], the Ki (D2 dopamine receptor; [12]) is reported as 2500 nM, the Ki [2, 3] is reported as 550 nM and the Ki (5HT1A serotonin receptor; [4]) is reported as 910 nM. For the same compound, the “α1 receptor binding affinity” value [1] was “high binding affinities for the α1 receptor” and the Ki [1, 5] was 53 nM.

In the case of `NCCc1c[nH]c2ccc(O)cc12` [Serotonin, reference compound], the Ki (5HT1 serotonin receptor; read-out: Ki characterizing the 5HT1 assay, assay characterization) is reported as 2.8 nM, the Ki (5HT1 serotonin receptor; [13]) is reported as 4.6 nM and the Ki (5HT3 serotonin receptor; [9]) is reported as 18.7 nM.

For `Oc1cccc2c1CC[C@H]1[C@H]2CCCN1CCc1ccccc1` (relative stereo) [trans-25, Trans-7-hydroxy-4-phenethyl-1,2,3,4,4a,5,6,10b-octahydrobenzo[f]quinoline], the Ki (D1 dopamine receptor) was 5100 nM, the Ki (D2 dopamine receptor) was 0.87 nM and the “dopamine receptor binding affinity” value (D2 dopamine receptor) was “good dopamine receptor binding affinities”. The “selectivity for the D2” value (D2 dopamine receptor) was “highly selective for the D2 dopamine receptor over the D1 dopamine receptor”, the Ki [2, 3] was 0.22 nM and the “α2 receptor binding affinity” value [2] was “high binding affinities for the α2 receptor”. The “5HT2 serotonin receptor binding affinity” value (5HT2 serotonin receptor) was “high binding affinities for the 5HT2 serotonin receptor”, the Ki (5HT2 serotonin receptor; [14]) was 27 nM and the Ki (D2 receptor) was 37 ± 9 nM. The “Ratio of +:- Gpp(NH)p” value (D2 receptor; Table XV) was 34.7, the Ki (D2 receptor; [11]) was 1270 ± 1640 nM and the D2 agonist/antagonist assessment (D2 receptor) was “appear to be agonists”. For the same compound, the “effect of GTP on D2 receptor binding” value (D2 receptor) was “D2 receptor binding was enhanced by the addition of GTP”, the “α1 receptor binding affinity” value [1] was “high binding affinities for the α1 receptor” and the Ki [1, 5] was 4.5 nM. It also gave a Ki (5HT1 serotonin receptor; [6]) of 470 nM.

With `c1ccc2nc(N3CCNCC3)ccc2c1` [Quipazin] the Ki (5HT3 serotonin receptor; [9]) was 1.5 nM.

In the case of `Cc1ccc(N(CC2=NCCN2)c2cccc(O)c2)cc1` [Phentolamine, reference compound], the Ki [2, 15] is reported as 1.7 nM.

`CN1[C@@H]2CC[C@H]1C[C@@H](OC(=O)c1cc(Cl)cc(Cl)c1)C2` [MDL-72222] showed a Ki (5HT3 serotonin receptor; read-out: Ki characterizing the 5HT3 assay, assay characterization) of 0.3 nM and a Ki (5HT3 serotonin receptor; [9]) of 7.2 nM.

`Clc1cccc(Cl)c1N=C1NCCN1` [Clonidine, reference compound] was tested, and the Ki [2, 15] was 14 nM.

For `COCCc1ccc(OCC(O)CNC(C)C)cc1` (stereo not drawn) [Metoprotol], the Ki (beta-adrenergic receptor; [10]) was 45 nM.

Work on `COc1ccc2[nH]cc(CCN)c2c1` [5-Methoxytryptamine, reference compound] yielded a Ki (5HT1 serotonin receptor; [13]) of 45.8 nM.

`Oc1cccc2c1CC[C@@H]1[C@@H]2CCCN1CCc1ccccc1` (single isomer, unassigned) [trans-(+)-25] gave a Ki (D2 dopamine receptor; [12]) of 400 nM, a Ki [2, 3] of 440 nM and a Ki (5HT1A serotonin receptor; [4]) of 410 nM. For the same compound, the “5HT2 serotonin receptor binding affinity” value (5HT2 serotonin receptor) was “high binding affinities for the 5HT2 serotonin receptor”, the Ki (5HT2 serotonin receptor; [14]) was 9.5 nM and the “α1 receptor binding affinity” value [1] was “high binding affinities for the α1 receptor”. The Ki [1, 5] was 5.5 nM.

With `C=CCc1ccccc1OCC(O)CNC(C)C` (stereo not drawn) [Alprenolol] the Ki (beta-adrenergic receptor; [10]) was 3.5 nM and the Ki (beta-adrenergic receptor; assay characterization, read-out: Ki characterizing the beta assay) was 1.74 nM.

With `Oc1ccc2c(c1O)CC[C@@H]1[C@@H]2CCCN1CCc1cccs1` (relative stereo) [trans-33] the Ki (D2 dopamine receptor) was 57 nM, the “dopamine receptor binding affinity” value (D2 dopamine receptor) was “good dopamine receptor binding affinities” and the “selectivity for the D2” value (D2 dopamine receptor) was “highly selective for the D2 dopamine receptor over the D1 dopamine receptor”. The Ki [2, 3] was 19 nM, the “α2 receptor binding affinity” value [2] was “high binding affinities for the α2 receptor” and the Ki (5HT1A serotonin receptor; [8]) was 190 nM. The “5HT1A serotonin receptor binding affinity” value (5HT1A serotonin receptor) was “high binding affinities for the 5HT1A serotonin receptor”, the Ki (5HT2 serotonin receptor) was 100 nM and the Ki [1, 5] was 180 nM. For the same compound, the Ki (5HT1 serotonin receptor; [6]) was 1800 nM.
